Source: patent publication EP4653440A1, “HETEROCYCLIC COMPOUND, AND PHARMACEUTICAL COMPOSITION AND USE THEREOF” (Prime Gene Therapeutics Co., Ltd., priority 2023, dated 2024)

Key:
ROCK1 = ROCK1 (Homo sapiens, UniProt Q13464); assay: ROCK1 kinase enzymatic activity (HTRF, STK2 substrate); format: biochemical; details: ROCK1 kinase reaction 20 minutes at room temperature
Excerpt: (§1) The kinase activity data was expressed by comparing the kinase activity of the test compound and that of the blank group (containing only DMSO), and the IC50 value was obtained by curve fitting using Prism software (GraphPad7.0).

ROCK2 = ROCK2 (Homo sapiens, UniProt O75116); assay: ROCK2 kinase enzymatic activity (HTRF, STK2 substrate); format: biochemical; details: ROCK2 kinase reaction 30 minutes at room temperature
ROCK2, sequence (O75116 whole entry): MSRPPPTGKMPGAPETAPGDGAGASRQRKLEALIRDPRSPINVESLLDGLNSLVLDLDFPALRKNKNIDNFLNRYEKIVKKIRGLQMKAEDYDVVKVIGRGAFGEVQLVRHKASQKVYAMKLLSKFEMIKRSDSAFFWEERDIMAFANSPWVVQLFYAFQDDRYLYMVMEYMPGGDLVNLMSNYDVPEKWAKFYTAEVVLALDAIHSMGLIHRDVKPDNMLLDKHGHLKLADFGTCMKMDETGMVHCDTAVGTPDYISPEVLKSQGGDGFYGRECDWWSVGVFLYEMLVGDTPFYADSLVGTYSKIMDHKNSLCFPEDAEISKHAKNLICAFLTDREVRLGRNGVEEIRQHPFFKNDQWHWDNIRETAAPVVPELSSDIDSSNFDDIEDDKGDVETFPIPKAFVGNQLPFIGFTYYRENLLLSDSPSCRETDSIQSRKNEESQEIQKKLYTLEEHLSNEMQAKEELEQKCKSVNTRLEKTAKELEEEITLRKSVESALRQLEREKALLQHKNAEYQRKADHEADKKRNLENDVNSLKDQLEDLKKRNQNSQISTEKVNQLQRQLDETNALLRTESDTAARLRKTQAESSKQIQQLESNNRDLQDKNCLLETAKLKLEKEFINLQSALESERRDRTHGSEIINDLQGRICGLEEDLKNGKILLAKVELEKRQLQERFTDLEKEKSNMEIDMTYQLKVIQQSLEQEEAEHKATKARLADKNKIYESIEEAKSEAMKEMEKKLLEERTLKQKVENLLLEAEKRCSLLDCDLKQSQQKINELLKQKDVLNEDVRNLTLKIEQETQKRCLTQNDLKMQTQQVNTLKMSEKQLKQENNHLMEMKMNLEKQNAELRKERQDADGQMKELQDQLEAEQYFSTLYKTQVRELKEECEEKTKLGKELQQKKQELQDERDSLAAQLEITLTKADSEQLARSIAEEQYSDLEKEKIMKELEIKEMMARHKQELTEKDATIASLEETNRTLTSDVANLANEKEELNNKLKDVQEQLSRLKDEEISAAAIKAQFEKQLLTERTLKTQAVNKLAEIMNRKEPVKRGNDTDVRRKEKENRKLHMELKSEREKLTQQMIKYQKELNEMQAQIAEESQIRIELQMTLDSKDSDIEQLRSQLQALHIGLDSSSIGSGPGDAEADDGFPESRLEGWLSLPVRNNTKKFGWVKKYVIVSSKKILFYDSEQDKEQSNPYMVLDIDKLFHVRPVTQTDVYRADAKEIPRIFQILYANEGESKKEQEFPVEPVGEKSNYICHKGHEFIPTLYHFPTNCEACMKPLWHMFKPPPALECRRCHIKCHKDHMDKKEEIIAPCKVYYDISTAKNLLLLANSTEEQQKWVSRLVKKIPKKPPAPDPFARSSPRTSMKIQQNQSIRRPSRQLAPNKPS
Excerpt: as §1

[1] = test system: phosphorylation of myosin light chain T18/S19; assay: In Cell Western for phosphorylation of myosin light chain in A7r5 cells; format: cell-based, rat
Excerpt: The rat smooth muscle cell line A7r5 was used, and the A7r5 cell culture conditions were DMEM containing 10% FBS. Phspho-MLC-T18/S19 specific antibody and a second detection antibody were used to detect the phosphorylation level of myosin light chain by In Cell Western. Cells treated with positive compounds were used as positive controls, while the group without compounds but with compound solvents was used as negative controls. DRAQ5 stained cell nuclei were used as internal references. GraphPad Prism 7.0 software was used, and fitting was carried out by using a non-linear regression curve with varying slopes to determine the absolute IC50 value.
On the first day, A7r5 cells were resuspended in serum-free medium and seeded into 384 wells of PDL coated transparent black plates at a density of 5000 cells per well. Serum starvation culture was performed for 4 hours, and the cells were incubated with the compound in serum-free medium for 1 hour. 50 µL of 8% PFA (polyformaldehyde) was added to each well and fixed at room temperature for 1 hour. The liquid in the wells was discard and 90 µL of ice methanol was added to each well to permeabilize the cells at 4 °C for 1 hour. Then, PBST (0.1% Tween20-PBS) was added using an automatic separator to wash three times. After patting the plate for drying, 50 µL blocking solution was added to each well for sealing at room temperature for 1 hour. The phspho-MLC-T18/S19 specific antibody was diluted with the blocking solution at a ratio of 1:200. After adding 20 µL to each well, incubation was carried out overnight at 4 °C with a sealed film.
On the second day, the liquid in the wells was discarded and PBST was added using an automatic separator to wash the plate 5 times. After patting the plate for drying, the second detection antibody was diluted with blocking solution at a ratio of 1:800 and DRAQ5 at a ratio of 1:1000. After adding 20 µL to each well, incubation was carried out at room temperature for 1 hour. Then, the liquid in the wells was discarded and PBST was added using an automatic separator to wash the plate 3 times, followed by adding ddH2O to wash the plate 3 times. After patting the plate for drying, it was scaned using a LICOR Odyssey near-infrared imaging scanner.

ROCK1, sequence (Q13464 whole entry): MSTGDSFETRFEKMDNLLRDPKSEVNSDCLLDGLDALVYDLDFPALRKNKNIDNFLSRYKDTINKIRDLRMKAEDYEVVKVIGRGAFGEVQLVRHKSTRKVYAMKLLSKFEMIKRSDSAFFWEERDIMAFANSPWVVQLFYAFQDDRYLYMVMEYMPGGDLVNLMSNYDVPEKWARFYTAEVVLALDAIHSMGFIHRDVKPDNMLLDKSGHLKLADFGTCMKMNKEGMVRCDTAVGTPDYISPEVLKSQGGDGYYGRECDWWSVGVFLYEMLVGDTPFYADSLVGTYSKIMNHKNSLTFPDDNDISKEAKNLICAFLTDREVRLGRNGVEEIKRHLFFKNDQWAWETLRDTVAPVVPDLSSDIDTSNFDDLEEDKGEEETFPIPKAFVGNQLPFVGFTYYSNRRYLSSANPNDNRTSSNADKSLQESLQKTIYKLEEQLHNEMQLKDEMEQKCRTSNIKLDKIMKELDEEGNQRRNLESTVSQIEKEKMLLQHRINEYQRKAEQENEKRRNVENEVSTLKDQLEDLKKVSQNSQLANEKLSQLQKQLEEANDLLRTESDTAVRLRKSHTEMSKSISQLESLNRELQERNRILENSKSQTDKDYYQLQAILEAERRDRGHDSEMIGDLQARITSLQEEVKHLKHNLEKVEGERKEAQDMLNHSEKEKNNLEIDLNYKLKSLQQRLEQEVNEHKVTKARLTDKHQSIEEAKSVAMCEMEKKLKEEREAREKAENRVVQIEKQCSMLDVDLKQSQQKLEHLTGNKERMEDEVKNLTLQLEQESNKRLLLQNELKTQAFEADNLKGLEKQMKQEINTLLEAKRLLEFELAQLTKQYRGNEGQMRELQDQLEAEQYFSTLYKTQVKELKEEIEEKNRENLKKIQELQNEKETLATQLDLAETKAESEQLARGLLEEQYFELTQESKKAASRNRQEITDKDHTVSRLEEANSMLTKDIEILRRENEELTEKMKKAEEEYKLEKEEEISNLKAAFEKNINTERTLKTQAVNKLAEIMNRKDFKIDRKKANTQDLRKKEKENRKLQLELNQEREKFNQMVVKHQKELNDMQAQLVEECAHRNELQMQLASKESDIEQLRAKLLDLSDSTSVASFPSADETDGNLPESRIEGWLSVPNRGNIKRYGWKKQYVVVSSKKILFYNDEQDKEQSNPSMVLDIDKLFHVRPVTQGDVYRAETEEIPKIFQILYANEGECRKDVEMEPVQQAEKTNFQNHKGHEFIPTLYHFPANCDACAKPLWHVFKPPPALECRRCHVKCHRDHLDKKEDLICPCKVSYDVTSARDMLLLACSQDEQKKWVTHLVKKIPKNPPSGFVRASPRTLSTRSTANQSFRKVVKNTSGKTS

SMILES | IC50 (ROCK1) | IC50 (ROCK2) | IC50 ([1]; Rattus norvegicus, A7R5, 1 h) | IC50 ([1]; rat smooth muscle cell line A7r5, 1 hour compound incubation in serum-free medium, absolute IC50)
N#CCC1(n2cc(-c3ncnc4[nH]ccc34)c(N)n2)CCS(=O)(=O)C1 (stereo not shown) [Example 3, 2-(3-(3-amino-4-(7H-pyrrolo[2,3-d]pyrimidin-4-yl)-1H-pyrazol-1-yl)-1,1-dioxotetrahydrothiophen-3-yl)acetonitrile] | < 2 nM | < 1 nM | 0.078 µM | 
N#CCC(C1CC2(CCC2)C1)n1cc(-c2ncnc3[nH]ccc23)c(N)n1 (stereo not shown) [Example 20, 3-(3-amino-4-(7H-pyrrolo[2,3-d]pyrimidin-4-yl)-1H-pyrazol-1-yl)-3-(spiro[3.3]heptan-2-yl)propionitrile] | < 5 nM | < 5 nM | 0.218 µM | 
C[C@H]1CNCCCN1S(=O)(=O)c1cccc2cncc(F)c12 [Ripasudil, reference compound] |  | 29.6 nM | 1.69 µM | 
N#CCC1(n2cc(-c3ncnc4[nH]ccc34)c(N)n2)CS(=O)(=O)C1 [Example 2, 2-(3-(3-amino-4-(7H-pyrrolo[2,3-d]pyrimidin-4-yl)-1H-pyrazol-1-yl)-1,1-dioxothietan-3-yl)acetonitrile] | < 2 nM | < 1 nM | 0.085 µM | 
CC(C)NC(=O)COc1cccc(-c2nc(Nc3ccc4[nH]ncc4c3)c3ccccc3n2)c1 [Belumosudil, reference compound] |  |  | 3.94 µM | 
CC1CC(C(CC#N)n2cc(-c3ncnc4[nH]ccc34)c(N)n2)C1 (stereo not shown) [Example 16, 3-(3-amino-4-(7H-pyrrolo[2,3-d]pyrimidin-4-yl)-1H-pyrazol-1-yl)-3-(3-methylcyclobutyl)propanitrile] | < 5 nM | < 5 nM | 0.284 µM | 
N#CCC(C1CC1)n1cc(-c2ncnc3[nH]ccc23)c(N)n1 (stereo not shown) [Example 12, 3-(3-amino-4-(7H-pyrrolo[2,3-d]pyrimidin-4-yl)-1H-pyrazol-1-yl)-3-cyclopropylpropanitrile] | < 5 nM | < 2 nM | 0.085 µM | 
N#CCC(C1CCCCC1)n1cc(-c2ncnc3[nH]ccc23)c(N)n1 (stereo not shown) [Example 14, 3-(3-amino-4-(7H-pyrrolo[2,3-d]pyrimidin-4-yl)-1H-pyrazol-1-yl)-3-cyclohexylpropionitrile] | < 5 nM | < 5 nM | 0.175 µM | 
N#CC[C@@H](C1CC1)n1cc(-c2ncnc3[nH]ccc23)c(N)n1 [Example 26, (S)-3-(3-amino-4-(7H-pyrrolo[2,3-d]pyrimidin-4-yl)-1H-pyrazol-1-yl)-3-cyclopropylpropionitrile] | < 5 nM | < 2 nM | 0.088 µM | 
CC1CC([C@@H](CC#N)n2cc(-c3ncnc4[nH]ccc34)c(N)n2)C1 (stereo partly drawn) [Example 18, (3R)-3-(3-amino-4-(7H-pyrrolo[2,3-d]pyrimidin-4-yl)-1H-pyrazol-1-yl)-3-(-3-methylcyclobutyl)propanitrile] | < 5 nM | < 5 nM | 0.296 µM | 
CC1(C)CC(C(CC#N)n2cc(-c3ncnc4[nH]ccc34)c(N)n2)C1 (stereo not shown) [Example 15, 3-(3-amino-4-(7H-pyrrolo[2,3-d]pyrimidin-4-yl)-1H-pyrazol-1-yl)-3-(3,3-dimethylcyclobutyl)propionitrile] | < 5 nM | < 5 nM | 0.215 µM | 
N#CCC1(n2cc(-c3ncnc4[nH]ccc34)c(N)n2)CCS(=O)(=O)CC1 [Example 1, 2-(4-(3-amino-4-(7H-pyrrolo[2,3-d]pyrimidin-4-yl)-1H-pyrazol-1-yl)-1,1-dioxidotetrahydro-2H-thiopyran-4-yl)acetonitrile] | < 2 nM | < 1 nM | 0.092 µM | 
N#CCC(C1CC2(CCCC2)C1)n1cc(-c2ncnc3[nH]ccc23)c(N)n1 (stereo not shown) [Example 22, 3-(3-amino-4-(7H-pyrrolo[2,3-d]pyrimidin-4-yl)-1H-pyrazol-1-yl)-3-(spiro[3.4]octan-2-yl)propionitrile] | < 5 nM | < 5 nM | 0.264 µM | 
N#CC[C@@H](C1CCCCC1)n1cc(-c2ncnc3[nH]ccc23)c(N)n1 [Example 30, (S)-3-(3-amino-4-(7H-pyrrolo[2,3-d]pyrimidin-4-yl)-1H-pyrazol-1-yl)-3-cyclohexylpropionitrile] | < 5 nM | < 5 nM | 0.182 µM | 
N#CCC1(n2cc(-c3ncnc4[nH]ccc34)c(N)n2)CC(C#N)C1 (stereo not shown) [Example 9, 3-(3-amino-4-(7H-pyrrolo[2,3-d]pyrimidin-4-yl)-1H-pyrazol-1-yl)-3-(cyanomethyl)cyclobutane-1-carbonitrile] | < 10 nM | < 10 nM | 0.068 µM | 
N#CC[C@H](C1CCC1)n1cc(-c2ncnc3[nH]ccc23)c(N)n1 [Example 27, (R)-3-(3-amino-4-(7H-pyrrolo[2,3-d]pyrimidin-4-yl)-1H-pyrazol-1-yl)-3-cyclobutylpropionitrile] | < 5 nM | < 5 nM | 0.095 µM | 
Cc1ccc(C(=O)OCc2ccc([C@@H](CN)C(=O)Nc3ccc4cnccc4c3)cc2)c(C)c1 [Netarsudil, reference compound] |  |  |  | 0.288 µM
N#CCC1(n2cc(-c3ncnc4[nH]ccc34)c(N)n2)CCCC1 [Example 4, 2-(1-(3-amino-4-(7H-pyrrolo[2,3-d]pyrimidin-4-yl)-1H-pyrazol-1-yl)cyclopentyl)acetonitrile] | < 10 nM | < 10 nM | 0.16 µM | 
N#CCC(C1CCC2(CC2)C1)n1cc(-c2ncnc3[nH]ccc23)c(N)n1 (stereo not shown) [Example 23, 3-(3-amino-4-(7H-pyrrolo[2,3-d]pyrimidin-4-yl)-1H-pyrazol-1-yl)-3-(spiro[2.4]hept-5-yl)propionitrile] | < 5 nM | < 5 nM | 0.195 µM | 
N#CC[C@]1(n2cc(-c3ncnc4[nH]ccc34)c(N)n2)C[C@@H](C#N)C1 [Example 11, (1s,3s)-3-(3-amino-4-(7H-pyrrolo[2,3-d]pyrimidin-4-yl)-1H-pyrazol-1-yl)-3-(cyanomethyl)cyclobutane-1-carbonitrile] | < 10 nM | < 10 nM | 0.466 µM | 
N#CC1CCCC1n1cc(-c2ncnc3[nH]ccc23)c(N)n1 (stereo not shown) [Example 7, 2-(3-amino-4-(7H-pyrrolo[2,3-d]pyrimidin-4-yl)-1H-pyrazol-1-yl)cyclopentane-1-nitrile] | < 50 nM | < 50 nM | 1.86 µM | 
N#CC[C@H](C1CC1)n1cc(-c2ncnc3[nH]ccc23)c(N)n1 [Example 25, (R)-3-(3-amino-4-(7H-pyrrolo[2,3-d]pyrimidin-4-yl)-1H-pyrazol-1-yl)-3-cyclopropylpropionitrile] | < 5 nM | < 2 nM | 0.075 µM | 
N#CCC(C1CC2CC2C1)n1cc(-c2ncnc3[nH]ccc23)c(N)n1 (stereo not shown) [Example 24, 3-(3-amino-4-(7H-pyrrolo[2,3-d]pyrimidin-4-yl)-1H-pyrazol-1-yl)-3-(bicyclo[3.1.0]hexyl-3-yl)propionitrile] | < 5 nM | < 5 nM | 0.214 µM | 
N#CCC(C1CC2(CC2)C1)n1cc(-c2ncnc3[nH]ccc23)c(N)n1 (stereo not shown) [Example 21, 3-(3-amino-4-(7H-pyrrolo[2,3-d]pyrimidin-4-yl)-1H-pyrazol-1-yl)-3-(spiro[2.3]hexan-5-yl)propionitrile] | < 5 nM | < 5 nM | 0.185 µM | 
N#CC1CCCCC1n1cc(-c2ncnc3[nH]ccc23)c(N)n1 (stereo not shown) [Example 8, 2-(3-amino-4-(7H-pyrrolo[2,3-d]pyrimidin-4-yl)-1H-pyrazol-1-yl)cyclohexane-1-nitrile] | < 50 nM | < 50 nM | 1.94 µM | 
N#CC[C@@H](C1CCC1)n1cc(-c2ncnc3[nH]ccc23)c(N)n1 [Example 28, (S)-3-(3-amino-4-(7H-pyrrolo[2,3-d]pyrimidin-4-yl)-1H-pyrazol-1-yl)-3-cyclobutylpropionitrile] | < 5 nM | < 5 nM | 0.12 µM | 
N#CCC1(n2cc(-c3ncnc4[nH]ccc34)c(N)n2)CCCCC1 [Example 5, 2-(1-(3-amino-4-(7H-pyrrolo[2,3-d]pyrimidin-4-yl)-1H-pyrazol-1-yl)cyclohexyl)acetonitrile] | < 5 nM | < 5 nM | 0.111 µM | 
CC1CC([C@H](CC#N)n2cc(-c3ncnc4[nH]ccc34)c(N)n2)C1 (stereo partly drawn) [Example 17, (3S)-3-(3-amino-4-(7H-pyrrolo[2,3-d]pyrimidin-4-yl)-1H-pyrazol-1-yl)-3-(-3-methylcyclobutyl)propanitrile] | < 5 nM | < 5 nM | 0.225 µM | 
